From the kinase profiling compilation of Christmann-Franck et al. (2016)

Legend:
Assay in all cases: radiometric filter-binding kinase assay, Kinase HotSpot
Conditions in all cases: compound 0.5 µM; ATP 10 µM
ACVR1 (human) = ACVR1 (human) (UniProt Q04771)
AKT2 (human) = AKT2 (human) (UniProt P31751)
AURKC (human) = AURKC (human) (UniProt Q9UQB9)
CDC42BPB (human) = CDC42BPB (human) (UniProt Q9Y5S2)
CDK4 CCND1 (human) = CDK4 CCND1 (human) (UniProt P24385+P11802)
CDK4 CCND3 (human) = CDK4 CCND3 (human) (UniProt P30281+P11802)
CDK6 CCND1 (human) = CDK6 CCND1 (human) (UniProt Q00534+P24385)
CLK3 (human) = CLK3 (human) (UniProt P49761)
CSNK1E (human) = CSNK1E (human) (UniProt P49674)
DAPK2 (human) = DAPK2 (human) (UniProt Q9UIK4)
Sequence of DAPK2 (human) (Q9UIK4 whole entry, looked up): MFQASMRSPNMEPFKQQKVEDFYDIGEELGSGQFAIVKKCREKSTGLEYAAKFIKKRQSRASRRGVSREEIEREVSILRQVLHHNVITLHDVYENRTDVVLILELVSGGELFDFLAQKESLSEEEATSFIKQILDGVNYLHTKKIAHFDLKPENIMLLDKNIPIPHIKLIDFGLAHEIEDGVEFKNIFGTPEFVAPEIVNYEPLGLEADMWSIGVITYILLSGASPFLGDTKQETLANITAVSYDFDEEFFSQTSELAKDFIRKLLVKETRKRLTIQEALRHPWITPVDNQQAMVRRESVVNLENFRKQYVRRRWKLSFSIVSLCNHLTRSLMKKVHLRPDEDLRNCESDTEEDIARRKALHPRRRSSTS

DDR2 (human) = DDR2 (human) (UniProt Q16832)
EPHA4 (human) = EPHA4 (human) (UniProt P54764)
ERBB4 (human) = ERBB4 (human) (UniProt Q15303)
FER (human) = FER (human) (UniProt P16591)
Sequence of FER (human) (P16591 whole entry, looked up): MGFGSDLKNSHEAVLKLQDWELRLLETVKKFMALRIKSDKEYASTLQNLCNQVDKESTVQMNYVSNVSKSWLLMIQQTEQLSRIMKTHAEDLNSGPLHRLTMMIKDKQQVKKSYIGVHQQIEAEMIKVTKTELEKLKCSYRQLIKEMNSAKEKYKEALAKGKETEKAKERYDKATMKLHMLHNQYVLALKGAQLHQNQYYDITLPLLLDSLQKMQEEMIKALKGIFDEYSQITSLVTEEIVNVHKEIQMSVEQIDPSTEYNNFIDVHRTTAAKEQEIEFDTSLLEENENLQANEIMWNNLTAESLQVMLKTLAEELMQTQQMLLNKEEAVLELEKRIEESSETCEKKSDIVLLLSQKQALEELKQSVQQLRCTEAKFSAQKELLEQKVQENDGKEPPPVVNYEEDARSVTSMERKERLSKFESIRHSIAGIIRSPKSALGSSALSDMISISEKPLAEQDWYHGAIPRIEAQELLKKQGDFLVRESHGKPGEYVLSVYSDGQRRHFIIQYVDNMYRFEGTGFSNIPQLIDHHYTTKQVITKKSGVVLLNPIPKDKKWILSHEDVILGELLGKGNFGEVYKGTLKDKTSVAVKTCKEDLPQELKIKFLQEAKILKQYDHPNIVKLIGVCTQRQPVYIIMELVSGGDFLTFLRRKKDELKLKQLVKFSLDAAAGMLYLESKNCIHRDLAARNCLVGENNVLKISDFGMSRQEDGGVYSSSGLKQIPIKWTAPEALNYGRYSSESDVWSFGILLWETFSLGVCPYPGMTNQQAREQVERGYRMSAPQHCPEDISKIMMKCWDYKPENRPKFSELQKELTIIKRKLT

FGFR1 (human) = FGFR1 (human) (UniProt P11362)
FLT1 (human) = FLT1 (human) (UniProt P17948)
GRK7 (human) = GRK7 (human) (UniProt Q8WTQ7)
LIMK1 (human) = LIMK1 (human) (UniProt P53667)
LRRK2 (human) = LRRK2 (human) (UniProt Q5S007)
MAP3K7 TAB1 (human) = MAP3K7 TAB1 (human) (UniProt O43318+Q15750)
Sequence of MAP3K7 TAB1 (human) (O43318 whole entry, looked up): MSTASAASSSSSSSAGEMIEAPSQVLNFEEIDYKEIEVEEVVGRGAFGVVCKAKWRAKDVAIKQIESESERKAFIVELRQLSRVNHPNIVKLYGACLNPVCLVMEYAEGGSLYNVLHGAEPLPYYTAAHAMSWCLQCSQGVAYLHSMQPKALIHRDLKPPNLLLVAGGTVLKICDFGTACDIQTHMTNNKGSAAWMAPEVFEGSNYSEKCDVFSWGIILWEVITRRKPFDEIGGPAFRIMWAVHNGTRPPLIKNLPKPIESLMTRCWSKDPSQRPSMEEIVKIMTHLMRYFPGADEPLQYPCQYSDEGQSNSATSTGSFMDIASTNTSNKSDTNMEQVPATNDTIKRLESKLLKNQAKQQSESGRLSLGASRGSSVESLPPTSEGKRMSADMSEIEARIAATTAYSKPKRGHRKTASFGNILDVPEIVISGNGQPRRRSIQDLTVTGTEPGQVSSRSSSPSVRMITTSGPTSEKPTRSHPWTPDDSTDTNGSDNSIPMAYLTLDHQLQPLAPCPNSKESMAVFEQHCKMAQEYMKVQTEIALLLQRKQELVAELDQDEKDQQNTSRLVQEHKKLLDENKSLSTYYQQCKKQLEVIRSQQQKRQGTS
Sequence of MAP3K7 TAB1 (human) (Q15750 whole entry, looked up): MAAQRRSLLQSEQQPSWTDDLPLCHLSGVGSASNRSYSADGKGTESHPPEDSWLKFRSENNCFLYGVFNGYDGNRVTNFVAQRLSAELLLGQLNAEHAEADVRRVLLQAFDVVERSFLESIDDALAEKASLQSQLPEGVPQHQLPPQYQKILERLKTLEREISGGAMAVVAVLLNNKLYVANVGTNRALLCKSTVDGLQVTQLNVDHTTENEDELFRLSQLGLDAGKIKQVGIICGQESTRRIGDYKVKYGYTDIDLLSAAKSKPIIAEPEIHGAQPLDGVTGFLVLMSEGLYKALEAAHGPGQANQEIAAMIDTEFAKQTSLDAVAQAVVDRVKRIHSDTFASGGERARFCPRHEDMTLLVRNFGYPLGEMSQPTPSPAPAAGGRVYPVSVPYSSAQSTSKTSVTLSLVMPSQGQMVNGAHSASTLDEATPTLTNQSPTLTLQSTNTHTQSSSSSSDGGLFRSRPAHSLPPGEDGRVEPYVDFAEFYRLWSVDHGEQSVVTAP

MAP4K2 (human) = MAP4K2 (human) (UniProt Q12851)
MAPK12 (human) = MAPK12 (human) (UniProt P53778)
MAPK13 (human) = MAPK13 (human) (UniProt O15264)
MAPK8 (human) = MAPK8 (human) (UniProt P45983)
MAPKAPK3 (human) = MAPKAPK3 (human) (UniProt Q16644)
MST4 (human) = MST4 (human) (UniProt Q9P289)
Sequence of MST4 (human) (Q9P289 whole entry, looked up): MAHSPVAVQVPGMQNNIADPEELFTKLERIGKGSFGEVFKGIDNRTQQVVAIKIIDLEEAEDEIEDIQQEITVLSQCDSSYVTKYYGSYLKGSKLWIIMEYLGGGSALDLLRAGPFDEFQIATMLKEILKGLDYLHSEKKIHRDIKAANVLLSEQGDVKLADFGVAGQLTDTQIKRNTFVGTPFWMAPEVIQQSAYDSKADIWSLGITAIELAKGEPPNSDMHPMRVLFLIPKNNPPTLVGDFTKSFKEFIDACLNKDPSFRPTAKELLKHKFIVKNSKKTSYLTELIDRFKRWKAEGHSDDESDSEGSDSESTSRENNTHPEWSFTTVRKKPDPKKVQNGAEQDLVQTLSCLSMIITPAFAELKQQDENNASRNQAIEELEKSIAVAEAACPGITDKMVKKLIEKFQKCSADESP

NLK (human) = NLK (human) (UniProt Q9UBE8)
PDGFRB (human) = PDGFRB (human) (UniProt P09619)
Sequence of PDGFRB (human) (P09619 whole entry, looked up): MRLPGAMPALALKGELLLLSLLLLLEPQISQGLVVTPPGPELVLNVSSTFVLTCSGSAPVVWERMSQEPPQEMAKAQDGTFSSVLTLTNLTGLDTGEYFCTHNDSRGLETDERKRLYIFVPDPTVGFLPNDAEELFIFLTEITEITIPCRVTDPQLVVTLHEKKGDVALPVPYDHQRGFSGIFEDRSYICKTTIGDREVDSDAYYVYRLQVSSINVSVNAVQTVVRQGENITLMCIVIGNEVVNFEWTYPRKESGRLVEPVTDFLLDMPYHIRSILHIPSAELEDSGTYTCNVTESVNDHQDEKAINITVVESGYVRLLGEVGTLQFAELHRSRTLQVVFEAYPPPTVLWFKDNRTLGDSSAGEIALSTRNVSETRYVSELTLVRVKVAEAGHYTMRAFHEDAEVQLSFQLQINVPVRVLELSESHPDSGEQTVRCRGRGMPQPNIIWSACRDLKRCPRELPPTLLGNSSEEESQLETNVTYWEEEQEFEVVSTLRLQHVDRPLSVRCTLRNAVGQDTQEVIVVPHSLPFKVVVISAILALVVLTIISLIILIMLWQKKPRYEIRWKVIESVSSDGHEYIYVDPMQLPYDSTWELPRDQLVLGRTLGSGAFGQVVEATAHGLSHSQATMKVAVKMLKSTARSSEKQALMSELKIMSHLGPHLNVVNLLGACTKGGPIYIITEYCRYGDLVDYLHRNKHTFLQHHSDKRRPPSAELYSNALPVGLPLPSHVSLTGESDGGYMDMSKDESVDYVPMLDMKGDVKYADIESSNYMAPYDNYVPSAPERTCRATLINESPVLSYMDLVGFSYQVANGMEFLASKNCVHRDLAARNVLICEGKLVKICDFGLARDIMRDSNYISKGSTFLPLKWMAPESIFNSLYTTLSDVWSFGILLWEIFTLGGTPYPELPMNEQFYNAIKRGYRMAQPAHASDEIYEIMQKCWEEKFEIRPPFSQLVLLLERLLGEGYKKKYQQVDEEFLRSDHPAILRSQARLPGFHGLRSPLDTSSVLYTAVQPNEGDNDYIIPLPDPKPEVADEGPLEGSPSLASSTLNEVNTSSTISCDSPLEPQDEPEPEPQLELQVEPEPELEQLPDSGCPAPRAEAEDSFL

PIM2 (human) = PIM2 (human) (UniProt Q9P1W9)
PKN2 (human) = PKN2 (human) (UniProt Q16513)
PLK3 (human) = PLK3 (human) (UniProt Q9H4B4)
PRKCB2 (human) = PRKCB2 (human) (UniProt P05771)
PRKCZ (human) = PRKCZ (human) (UniProt Q05513)
RPS6KA4 KD2 (human) = RPS6KA4 KD2 (human) (UniProt O75676)
RPS6KA5 KD2 (human) = RPS6KA5 KD2 (human) (UniProt O75582)
SRC (human) = SRC (human) (UniProt P12931)
SYK (human) = SYK (human) (UniProt P43405)
TSSK2 (human) = TSSK2 (human) (UniProt Q96PF2)
TTK (human) = TTK (human) (UniProt P33981)
TYRO3 (human) = TYRO3 (human) (UniProt Q06418)
WNK2 (human) = WNK2 (human) (UniProt Q9Y3S1)
WNK3 (human) = WNK3 (human) (UniProt Q9BYP7)

Sequence of ACVR1 (human) (Q04771 whole entry, looked up): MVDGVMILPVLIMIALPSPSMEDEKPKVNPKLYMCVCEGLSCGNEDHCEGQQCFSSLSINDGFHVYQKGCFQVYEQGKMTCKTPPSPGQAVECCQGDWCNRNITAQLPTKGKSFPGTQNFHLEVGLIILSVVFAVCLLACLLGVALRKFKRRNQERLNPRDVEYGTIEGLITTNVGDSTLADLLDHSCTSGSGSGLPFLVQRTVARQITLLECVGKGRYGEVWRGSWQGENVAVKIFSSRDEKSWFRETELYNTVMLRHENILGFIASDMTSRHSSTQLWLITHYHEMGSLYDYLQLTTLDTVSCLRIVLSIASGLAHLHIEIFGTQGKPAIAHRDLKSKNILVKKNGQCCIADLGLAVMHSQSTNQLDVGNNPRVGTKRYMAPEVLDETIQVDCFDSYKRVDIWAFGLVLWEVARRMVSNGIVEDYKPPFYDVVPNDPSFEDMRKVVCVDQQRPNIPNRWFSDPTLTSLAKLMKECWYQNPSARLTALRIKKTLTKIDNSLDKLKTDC
Sequence of AKT2 (human) (P31751 whole entry, looked up): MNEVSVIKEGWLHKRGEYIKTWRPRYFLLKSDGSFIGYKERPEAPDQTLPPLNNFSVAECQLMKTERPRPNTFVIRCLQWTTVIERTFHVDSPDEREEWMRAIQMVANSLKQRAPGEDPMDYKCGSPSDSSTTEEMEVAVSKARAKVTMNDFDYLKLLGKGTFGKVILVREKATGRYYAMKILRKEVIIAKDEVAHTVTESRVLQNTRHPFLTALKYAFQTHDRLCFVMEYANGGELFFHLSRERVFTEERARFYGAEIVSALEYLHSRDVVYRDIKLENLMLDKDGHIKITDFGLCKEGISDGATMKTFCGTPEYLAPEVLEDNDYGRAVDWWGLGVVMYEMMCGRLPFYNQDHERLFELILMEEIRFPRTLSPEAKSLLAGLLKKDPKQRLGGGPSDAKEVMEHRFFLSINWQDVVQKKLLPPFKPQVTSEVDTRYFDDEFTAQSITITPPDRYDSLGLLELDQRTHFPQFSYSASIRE

## COc1cccc(-c2cc(=O)c3ccccc3o2)c1N
ACVR1 (human)
  residual activity: 92.7%
AKT2 (human)
  residual activity: 97.4%
AURKC (human)
  residual activity: 95.3%
CDC42BPB (human)
  residual activity: 94.8%
CDK4 CCND1 (human)
  residual activity: 100%
CDK4 CCND3 (human)
  residual activity: 101%
CDK6 CCND1 (human)
  residual activity: 95.5%
CLK3 (human)
  residual activity: 95.4%
CSNK1E (human)
  residual activity: 97.5%
DAPK2 (human)
  residual activity: 107%
DDR2 (human)
  residual activity: 92%
EPHA4 (human)
  residual activity: 98%
ERBB4 (human)
  residual activity: 94.7%
FER (human)
  residual activity: 97.6%
FGFR1 (human)
  residual activity: 96.8%
FLT1 (human)
  residual activity: 87.7%
GRK7 (human)
  residual activity: 103%
LIMK1 (human)
  residual activity: 96.1%
LRRK2 (human)
  residual activity: 101%
MAP3K7 TAB1 (human)
  residual activity: 98.7%
MAP4K2 (human)
  residual activity: 81.7%
MAPK12 (human)
  residual activity: 95.5%
MAPK13 (human)
  residual activity: 99.8%
MAPK8 (human)
  residual activity: 95.3%
MAPKAPK3 (human)
  residual activity: 88.1%
MST4 (human)
  residual activity: 110%
NLK (human)
  residual activity: 96.4%
PDGFRB (human)
  residual activity: 99.4%
PIM2 (human)
  residual activity: 99.3%
PKN2 (human)
  residual activity: 81%
PLK3 (human)
  residual activity: 98%
PRKCB2 (human)
  residual activity: 102%
PRKCZ (human)
  residual activity: 99.1%
RPS6KA4 KD2 (human)
  residual activity: 103%
RPS6KA5 KD2 (human)
  residual activity: 96.4%
SRC (human)
  residual activity: 92.6%
SYK (human)
  residual activity: 97.2%
TSSK2 (human)
  residual activity: 79.7%
TTK (human)
  residual activity: 99%
TYRO3 (human)
  residual activity: 96.9%
WNK2 (human)
  residual activity: 122%
WNK3 (human)
  residual activity: 96.3%
